This passage reports IC50 results from patent US8633204B2 (Pfizer Inc., priority 2006, dated 2014).

Usually IC50 stands for the concentration that gives 50% inhibition. The low end stands for inhibition by little substance, the high end for a need for much substance.

For this test, the system named is PI3-K in BT20 cells (phosphorylation of AKT at serine 473). Put plainly: PI3-Kα Cellular Assay (AKT Ser473 phosphorylation ELISA in BT20 cells). Type of test: cell-based, human. The following applies: Homo sapiens, BT-20, pAKT Ser473 ELISA, 1 hour incubation. The method, then: Compounds of the present invention were evaluated for potency against PI3-K using a cellular assay as follows.
Healthy growing human breast cancer cells BT20 (PI3K mutated) are used for the assay. BT20 cells are grown in 10% FBS+GLN (1:100)+PS (1:100)+1 mM Sodium Pyruvate+0.1 mM Sodium Bicarbonate+Non-Essential Amino Acids Solution (1:100) MEM medium (MEM+all). […] The cells are re-suspended in 10% FBS MEM all and are centrifuged down at 1400 rpm for 5 minutes. The cells are re-suspended in 0.5% FBS MEM all and are counted on a cell counter. The cells are seeded at 25,000 cells/well in volume of 100 μL/well in 0.5% FBS MEM all in a 96 well flat-bottom plate. The negative control wells receive only 100 μL of 0.5% FBS MEM all medium without cells. The plate is incubated overnight in a cell culture incubator with 5% CO2 at 37° C.
On day 2, testing compounds are prepared in 0.5% FBS MEM all medium and serially diluted at 1:3 for 11 test concentrations. Each concentration of the compounds is tested in duplicate. The compound solutions are added at 25 μL/well to the corresponded wells in cell plate, and 25 μL/well of the vehicle (0.5% DMSO in 0.5% FBS MEM all) is added to the negative control wells (no cells) and the positive control wells (cells without compounds). The plate is incubated for 1 hour in a cell culture incubator with 5% CO2 at 37° C. After 1 hour of incubation, the medium is removed, 100 μL/well of cell lysis buffer is added into the cell plate, and shake for 15 minutes at room temperature. […] After 1 hour, empty the contents of the wells, wash the plate 4 times with the wash buffer, and add 100 μL of TMB substrate solution (catalog #T0440, Sigma) into each well, and incubate with gentle shaking at room temperature for […]. After 15 minutes of color development, add 100 μL of stop solution (1N hydrochloric acid) to each well, and read the plate at 450 nm on ELISA plate reader.

`Cc1nc(N)nc2c1cc(-c1cn[nH]c1)c(=O)n2C1CCCC1` [Compound 101, 2-amino-8-cyclopentyl-6-(1H-pyrazol-4-yl)-4-methylpyrido[2,3-d]pyrimidin-7(8H)-one] returned a concentration for half-maximal inhibition (IC50) of 3.49 nM.

Take `CCNc1nc(C)c2cc(CCC(N)=O)c(=O)n(C3CCCC3)c2n1` [Compound 118, 3-[8-cyclopentyl-2-(ethylamino)-4-methyl-7-oxo-7,8-dihydropyrido[2,3-d]pyrimidin-6-yl]propanamide]: the half-inhibitory concentration (IC50) was 8370 nM. The figure for `CCNc1nc(C)c2cc(CCC(=O)Nc3ccccn3)c(=O)n(C3CCCC3)c2n1` [Compound 122, 3-[8-cyclopenlyl-2-(ethylamino)-4-methyl-7-oxo-7,8-dihydropyrido[2,3-d]pyrimidin-6-yl]-N-pyridin-2-ylpropanamide] is 10000 nM; for `Cc1nc(N)nc2c1cc(-c1cccnc1N)c(=O)n2C1CCCC1` [Compound 125, 2-amino-6-(2-aminopyridin-3-yl)-8-cyclopentyl-4-methylpyrido[2,3-d]pyrimidin-7(8H)-one] it is 9010 nM; for `CCNc1nc(C)c2cc(-c3ccc(O)c(OC)c3)c(=O)n(C3CCCC3)c2n1` [Compound 136, 8-cyclopentyl-2-(ethylamino)-6-(4-hydroxy-3-methoxyphenyl)-4-methylpyrido[2,3-d]pyrimidin-7(8H)-one] it is 26.3 nM.

Turning to `CCNc1nc(C)c2cc(-c3ccc(OC)nc3)c(=O)n(C3CCCC3)c2n1` [Compound 139, 8-cyclopentyl-2-(ethylamino)-6-(6-methoxypyridin-3-yl)-4-methylpyrido[2,3-d]pyrimidin-7(8H)-one], the half-maximal inhibitory concentration (IC50) stood at 17 nM. For the compound `CNc1nc(C)c2cc(-c3ccc(OC)nc3)c(=O)n(C3CCCC3)c2n1` [Compound 140], half-maximal inhibition (IC50) was put at 0.793 nM. As for `CCOC(=O)c1cccc(-c2cc3c(C)nc(NC)nc3n(C3CCCC3)c2=O)c1` [Compound 141, ethyl 3-[8-cyclopentyl-4-methyl-2-(methylamino)-7-oxo-7,8-dihydropyrido[2,3-d]pyrimidin-6-yl]benzoate], the IC50 was determined as 10000 nM. The figure for `CCNc1nc(C)c2cc(-c3cccc(O)c3)c(=O)n(C3CCCC3)c2n1` [Compound 144, 8-cyclopentyl-2-(ethylamino)-6-(3-hydroxyphenyl)-4-methylpyrido[2,3-d]pyrimidin-7(8H)-one] is 3.05 nM.

Compound `Cc1nc(N)nc2c1cc(Br)c(=O)n2[C@H]1CC[C@H](O)CC1` [Compound 157, 2-amino-6-bromo-8-(trans-4-hydroxycyclohexyl)-4-methylpyrido[2,3-d]pyrimidin-7(8H)-one] yielded a half-inhibitory concentration (IC50) of 305 nM.

Regarding `Cc1nc(N)nc2c1cc(Br)c(=O)n2[C@@H]1CC[C@H](O)C1` [Compound 160, 2-amino-6-bromo-8-[(1R,3S)-3-hydroxycyclopentyl]-4-methylpyrido[2,3-d]pyrimidin-7(8H)-one], the 50% inhibitory concentration (IC50) was determined as 1040 nM. The compound `Cc1nc(N)nc2c1cc(-c1cnn(C)c1)c(=O)n2[C@@H]1CC[C@H](O)C1` [Compound 161, 2-amino-8-[(1R,3S)-3-hydroxycyclopentyl]-4-methyl-6-(1-methyl-1H-pyrazol-4-yl)pyrido[2,3-d]pyrimidin-7(8H)-one] returned a 50% inhibitory concentration (IC50) of 934 nM. The figure for `Cc1nc(N)nc2c1cc(-c1cn[nH]c1)c(=O)n2[C@@H]1CC[C@H](O)C1` [Compound 162, 2-amino-8-[(1R,3S)-3-hydroxycyclopentyl]-4-methyl-6-(1H-pyrazol-4-yl)pyrido[2,3-d]pyrimidin-7(8H)-one] is 47.2 nM; for `Cc1nc(N)nc2c1cc(-c1cnn(C)c1)c(=O)n2[C@@H]1CC[C@@H](O)C1` [Compound 164, 2-amino-8-[(1R,3R)-3-hydroxycyclopentyl]-4-methyl-6-(1-methyl-1H-pyrazol-4-yl)pyrido[2,3-d]pyrimidin-7(8H)-one] it is 1300 nM; for `Cc1nc(N)nc2c1cc(-c1cn[nH]c1)c(=O)n2[C@@H]1CC[C@@H](O)C1` [Compound 166, 2-amino-8-[(1R,3R)-3-hydroxycyclopentyl]-4-methyl-6-(1H-pyrazol-4-yl)pyrido[2,3-d]pyrimidin-7(8H)-one] it is 262 nM. The figure for `Cc1nc(N)nc2c1cc(Br)c(=O)n2CC(C)(C)O` [Compound 167, 2-amino-6-bromo-8-(2-hydroxy-2-methylpropyl)-4-methylpyrido[2,3-d]pyrimidin-7(8H)-one] is 2360 nM.

For `COc1ccc(-c2cc3c(C)nc(N)nc3n(CC(C)(C)O)c2=O)cn1` [Compound 169, 2-amino-8-(2-hydroxy-2-methylpropyl)-6-(6-methoxypyridin-3-yl)-4-methylpyrido[2,3-d]pyrimidin-7(8H)-one], the IC50 came out at 340 nM. The figure for `Cc1nc(N)nc2c1cc(-c1cnc3[nH]ccc3c1)c(=O)n2CC(C)(C)O` [Compound 172, 2-amino-8-(2-hydroxy-2-methylpropyl)-4-methyl-6-(1H-pyrrolo[2,3-b]pyridin-5-yl)pyrido[2,3-d]pyrimidin-7(8H)-one] is 116 nM. The figure for `COc1ccc(-c2cc3c(C)nc(N)nc3n([C@H]3CC[C@@H](O)CC3)c2=O)cn1` [Compound 174, 2-amino-8-(cis-4-hydroxycyclohexyl)-6-(6-methoxypyridin-3-yl)-4-methylpyrido[2,3-d]pyrimidin-7(8H)-one] is 19 nM; for `Cc1nc(N)nc2c1cc(-c1cn[nH]c1)c(=O)n2C1CCC(=O)CC1` [Compound 176, 2-amino-4-methyl-8-(4-oxocyclohexyl)-6-(1H-pyrazol-4-yl)pyrido[2,3-d]pyrimidin-7(8H)-one] it is 4.66 nM.

As to `COc1ncc(-c2cc3c(C)nc(N)nc3n([C@H]3CC[C@@H](O)CC3)c2=O)cc1F` [Compound 177], half-maximal inhibition (IC50) was put at 8.02 nM.

As for `COc1ncc(-c2cc3c(C)nc(N)nc3n([C@H]3CC[C@H](OC)CC3)c2=O)cc1F` [Compound 180, 2-amino-6-(5-fluoro-6-methoxypyridin-3-yl)-8-(trans-4-methoxycyclohexyl)-4-methylpyrido[2,3-d]pyrimidin-7(8H)-one], it took 3.39 nM to reach half-maximal inhibition (IC50). The figure for `Cc1nc(N)nc2c1cc(-c1ccc(N(C)C)nc1)c(=O)n2[C@H]1CC[C@@H](O)CC1` [Compound 181, 2-amino-6-[6-(dimethylamino)pyridin-3-yl]-8-(cis-4-hydroxycyclohexyl)-4-methylpyrido[2,3-d]pyrimidin-7(8H)-one] is 17.6 nM; for `CO[C@H]1CC[C@H](n2c(=O)c(-c3cn[nH]c3)cc3c(C)nc(N)nc32)CC1` [Compound 183, 2-amino-8-(trans-4-methoxycyclohexyl)-4-methyl-6-(1H-pyrazol-4-yl)pyrido[2,3-d]pyrimidin-7(8H)-one] it is 4.69 nM. As for `COc1ncc(-c2cc3c(C)nc(N)nc3n([C@H]3CC[C@H](O)CC3)c2=O)cc1F` [Compound 191, 2-amino-6-[5-fluoro-6-methoxypyridin-3-yl)-8-(trans-4-hydroxycyclohexyl)-4-methylpyrido[2,3-d]pyrimidin-7(8H)-one], the IC50 turned out to be 3.1 nM. The figure for `COc1ccc(-c2cc3c(C)nc(N)nc3n(C3CCOCC3)c2=O)cn1` [Compound 200, 2-amino-6-(6-methoxypyridin-3-yl)-4-methyl-8-(tetrahydro-2H-pyran-4-yl)pyrido[2,3-d]pyrimidin-7(8H)-one] is 71.4 nM; for `Cc1nc(N)nc2c1cc(-c1cn[nH]c1)c(=O)n2CC1CCOC1` (centres unmarked) [Compound 219, 2-amino-4-methyl-6-(1H-pyrazol-4-yl)-8-((tetrahydrofuran-3-yl)methyl)pyrido[2,3-d]pyrimidin-7(8H)-one] it is 94.9 nM.

`COc1ccc(-c2cc3c(C)nc(N)nc3n(CC3CCOC3)c2=O)cn1` (centres unmarked) [Compound 220, 2-amino-6-(6-methoxypyridin-3-yl)-4-methyl-8-((tetrahydrofuran-3-yl)methyl)pyrido[2,3-d]pyrimidin-7(8H)-one] displayed an IC50 of 145 nM. In turn, `Cc1nc(N)nc2c1cc(-c1cn[nH]c1)c(=O)n2CC1CCCO1` (centres unmarked) [Compound 223, 2-amino-4-methyl-6-(1H-pyrazol-4-yl)-8-((tetrahydrofuran-2-yl)methyl)pyrido[2,3-d]pyrimidin-7(8H)-one] registered an IC50 of 249 nM. The figure for `Cc1nc(N)nc2c1cc(-c1cnn(C)c1)c(=O)n2C1CCCC1` [Compound 235, 2-Amino-8-cyclopentyl-4-methyl-6-(1-methyl-1H-pyrazol-yl)-8H-pyrido[2,3-d]pyrimidin-7-one] is 623 nM; for `CNc1nc(C)c2cc(-c3ccc(OC)nc3)c(=O)n(CCN)c2n1` [Compound 239, 8-(2-Amino-ethyl)-6-(6-methoxy-pyridin-3-yl)-4-methyl-2-methylamino-8H-pyrido[2,3-d]pyrimidin-7-one] it is 1270 nM; for `COc1ccc(-c2cc3c(C)nc(N)nc3n(CC(C)C)c2=O)cn1` [Compound 241, 2-Amino-8-isobutyl-6-(6-methoxy-pyridin-3-yl)-4-methyl-8H-pyrido[2,3-d]pyrimidin-7-one] it is 79.3 nM.
